Measurements as given in US20110158980A1, “METHODS TO TREAT AND SCREEN FOR AGENTS TO TREAT OBESITY” (TRUSTEES OF TUFTS COLLEGE, priority 2008, published 2011).

Columns and labels:
3T3-L1 adipocytes [1] = experiment: Amino acid uptake or output of adipocytes (HPLC of spent medium); type: cell-based; details: 20 mM OXA; day 12 post-induction; positive value = uptake
Procedure: (§1) 3T3-L1 preadipocytes were plated onto 24-well plates and expanded in preadipocyte growth medium consisting of DMEM supplemented with calf serum (10% v/v), penicillin and streptomycin. Medium was replenished every other day. Two days post-confluence, the cells were induced to differentiate using an adipogenic cocktail (1 μg/ml insulin, 0.5 mM isobutylmethylxanthine, and 1 μM dexamethasone) added to a basal medium (DMEM with 10% fetal bovine serum and penicillin/streptomycin). After 48 hrs, the first medium was replaced with a second induction medium consisting of the basal adipocyte medium supplemented with only insulin. […] This basal medium was replenished every other day during the remainder of the culture experiments.
Metabolite measurements were performed both on cell lysates and spent medium samples as described previously (Si Y, Yoon J, Lee K. American journal of physiology 2007; 292:E1637-46). Cells were lysed in situ with an 0.1% SDS buffer and sonicated. Immediately after collection, the spent medium samples were cleaned of cell debris by a brief centrifugation step. Free glycerol, TG and free fatty acids (FFAs) were measured using enzymatic assay kits (SIGMA™). Glucose and lactate concentrations were measured using the methods of Trinder (Trinder P. J Clin Pathol 1969; 22:158-61) and Loomis (Loomis M E. J Lab Clin Med 1961; 57:966-9), respectively. Amino acids were quantified by HPLC using fluorescence-based detection following pre-column derivatization of primary or secondary amines with 6-aminoquinolyl-N-hydroxysuccinimidyl-carbamate (Cohen S A, De Antonis K M. J Chromatogr A 1994; 661:25-34). All metabolite data were normalized by the corresponding cell sample DNA content, which was determined with a fluorescence-based assay using the Hoechst dye.

3T3-L1 adipocytes [2] = experiment: Metabolic flux analysis (stoichiometric model) of adipocyte intermediary metabolism; type: cell-based; details: OXA 20 mM; day 12 post-induction
Procedure: as §1
A stoichiometric model of adipocyte central carbon metabolism was constructed as described previously (Si Y, Yoon J, Lee K. American journal of physiology 2007; 292:E1637-46). The model consisted of the major pathways of central carbon metabolism (Table 1). Intracellular fluxes were estimated by solving a constrained non-linear optimization problem with stoichiometric and thermodynamic constraints (Nolan R P, Fenley A P, Lee K. Metab Eng 2006; 8:30-45).

With `NC(=O)C(=O)O` [oxamate] the “ALA uptake or output” value (3T3-L1 adipocytes [1]) was 0.6 ± 0.0 mmol/g-DNA/2 days, the “ASN uptake or output” value (3T3-L1 adipocytes [1]) was −1.1 ± 0.2 mmol/g-DNA/2 days and the “ASP uptake or output” value (3T3-L1 adipocytes [1]) was 0.0 ± 0.0 mmol/g-DNA/2 days. For the same compound, the “GLN uptake or output” value (3T3-L1 adipocytes [1]) was −12.0 ± 1.5 mmol/g-DNA/2 days, the “GLU uptake or output” value (3T3-L1 adipocytes [1]) was 0.4 ± 0.0 mmol/g-DNA/2 days and the “GLY uptake or output” value (3T3-L1 adipocytes [1]) was −5.9 ± 0.4 mmol/g-DNA/2 days. For the same compound, the “HIS uptake or output” value (3T3-L1 adipocytes [1]) was −0.2 ± 0.1 mmol/g-DNA/2 days, the “ILE uptake or output” value (3T3-L1 adipocytes [1]) was 6.1 ± 0.3 mmol/g-DNA/2 days and the “LEU uptake or output” value (3T3-L1 adipocytes [1]) was 6.8 ± 0.3 mmol/g-DNA/2 days. The “LYS uptake or output” value (3T3-L1 adipocytes [1]) was −2.0 ± 0.3 mmol/g-DNA/2 days, the “MET uptake or output” value (3T3-L1 adipocytes [1]) was 0.0 ± 0.0 mmol/g-DNA/2 days and the “PHE uptake or output” value (3T3-L1 adipocytes [1]) was −0.3 ± 0.1 mmol/g-DNA/2 days. For the same compound, the “PRO uptake or output” value (3T3-L1 adipocytes [1]) was −0.5 ± 0.0^ mmol/g-DNA/2 days, the “SER uptake or output” value (3T3-L1 adipocytes [1]) was 4.0 ± 0.2 mmol/g-DNA/2 days and the “THR uptake or output” value (3T3-L1 adipocytes [1]) was −1.4 ± 0.3^ mmol/g-DNA/2 days. The “TYR uptake or output” value (3T3-L1 adipocytes [1]) was −0.3 ± 0.1 mmol/g-DNA/2 days, the “VAL uptake or output” value (3T3-L1 adipocytes [1]) was 3.3 ± 0.2 mmol/g-DNA/2 days and the “Flux RXN 1 Glycolysis: Glucose + ATP = Glucose 6-P + ADP” value (3T3-L1 adipocytes [2]) was 212.3 ± 15.3 mmol/g-DNA/2 days. For the same compound, the “Flux RXN 2 Glycolysis: Glucose 6-P = Fructose 6-P” value (3T3-L1 adipocytes [2]) was 205.0 ± 14.2 mmol/g-DNA/2 days, the “Flux RXN 3 Glycolysis: Fructose 6-P + ATP = Glyceraldehyde 3-P + Glycerone-P + ADP” value (3T3-L1 adipocytes [2]) was 209.9 ± 14.8 mmol/g-DNA/2 days and the “Flux RXN 4 Glycolysis: Glycerone-P = Glyceraldehyde 3-P” value (3T3-L1 adipocytes [2]) was 187.8 ± 13.9 mmol/g-DNA/2 days. For the same compound, the “Flux RXN 5 Glycolysis: Glyceraldehyde 3-P + NAD+ + ADP + Pi = P-Enolpyruvate + ATP + H2O” value (3T3-L1 adipocytes [2]) was 400.1 ± 28.6 mmol/g-DNA/2 days, the “Flux RXN 6 Glycolysis: P-Enolpyruvate + ADP + H+ = Pyruvate + ATP” value (3T3-L1 adipocytes [2]) was 463.5 ± 35.6 mmol/g-DNA/2 days and the “Flux RXN 7 Glycolysis: Pyruvate + NADH + H+ = Lactate + NAD+” value (3T3-L1 adipocytes [2]) was 119.2 ± 9.1 mmol/g-DNA/2 days. For the same compound, the “Flux RXN 8 Pentose phosphate pathway: Glucose 6-P + 2 NADP+ + H2O = Ribulose 5-P + CO2 + 2 NADPH + 2 H+” value (3T3-L1 adipocytes [2]) was 7.3 ± 4.6 mmol/g-DNA/2 days, the “Flux RXN 9 Pentose phosphate pathway: 3 Ribulose 5-P = 2 Fructose 6-P + Glyceraldehyde 3-P” value (3T3-L1 adipocytes [2]) was 2.4 ± 1.5 mmol/g-DNA/2 days and the “Flux RXN 10 TCA cycle (mitochondria) (PDC)” value (3T3-L1 adipocytes [2]) was 290.4 ± 25.6 mmol/g-DNA/2 days. For the same compound, the “Flux RXN 11 TCA cycle (mitochondria) (PC)” value (3T3-L1 adipocytes [2]) was 109.1 ± 31.7 mmol/g-DNA/2 days, the “Flux RXN 12 TCA cycle (mitochondria)” value (3T3-L1 adipocytes [2]) was 185.0 ± 19.7 mmol/g-DNA/2 days and the “Flux RXN 13 TCA cycle (mitochondria)” value (3T3-L1 adipocytes [2]) was 226.7 ± 26.2 mmol/g-DNA/2 days. For the same compound, the “Flux RXN 14 TCA cycle (mitochondria)” value (3T3-L1 adipocytes [2]) was 236.0 ± 26.3 mmol/g-DNA/2 days, the “Flux RXN 15 TCA cycle (mitochondria)” value (3T3-L1 adipocytes [2]) was 236.0 ± 26.3 mmol/g-DNA/2 days and the “Flux RXN 16 TCA cycle (mitochondria)” value (3T3-L1 adipocytes [2]) was 181.2 ± 40.8 mmol/g-DNA/2 days. The “Flux RXN 17 TCA cycle: Citrate + CoA + ATP = Acetyl-CoA + Oxaloacetate + ADP + Pi” value (3T3-L1 adipocytes [2]) was 63.7 ± 12.9 mmol/g-DNA/2 days, the “Flux RXN 18 TCA cycle: Oxaloacetate + NADH + H+ = Malate + NAD+” value (3T3-L1 adipocytes [2]) was 0.3 ± 0.8 mmol/g-DNA/2 days and the “Flux RXN 19 TCA cycle: Malate + NADP+ = Pyruvate + CO2 + NADPH” value (3T3-L1 adipocytes [2]) was 55.2 ± 20.8 mmol/g-DNA/2 days. The “Flux RXN 20 TCA cycle: Citrate + NADP+ = 2-Oxoglutarate + CO2 + NADPH + H+” value (3T3-L1 adipocytes [2]) was 41.6 ± 9.1 mmol/g-DNA/2 days, the “Flux RXN 21 TCA cycle: Oxaloacetate + ATP = P-Enolpyruvate + CO2 + ADP” value (3T3-L1 adipocytes [2]) was 63.4 ± 12.9 mmol/g-DNA/2 days and the “Flux RXN 22 Oxidative phosphorylation (NADH + 0.5 O2)” value (3T3-L1 adipocytes [2]) was 770.4 ± 108.2 mmol/g-DNA/2 days. For the same compound, the “Flux RXN 23 Oxidative phosphorylation (FADH2 + 0.5 O2)” value (3T3-L1 adipocytes [2]) was 252.2 ± 26.4 mmol/g-DNA/2 days, the “Flux RXN 24 Palmitate biosynthesis” value (3T3-L1 adipocytes [2]) was 8.0 ± 1.6 mmol/g-DNA/2 days and the “Flux RXN 25 Tripalmitoylglycerol biosynthesis: Glycerone-P + 3 Palmitate to Tripalmitoylglycerol” value (3T3-L1 adipocytes [2]) was 22.1 ± 4.8 mmol/g-DNA/2 days. The “Flux RXN 26 Tripalmitoylglycerol + 3 H2O = Glycerol + 3 Palmitate” value (3T3-L1 adipocytes [2]) was 19.8 ± 4.4 mmol/g-DNA/2 days, the “Flux RXN 27 Tripalmitoylglycerol accumulation” value (3T3-L1 adipocytes [2]) was 2.3 ± 0.5 mmol/g-DNA/2 days and the “Flux RXN 28 Metabolism of ketone bodies” value (3T3-L1 adipocytes [2]) was 6.4 ± 0.3 mmol/g-DNA/2 days. The “Flux RXN 29 Metabolism of ketone bodies” value (3T3-L1 adipocytes [2]) was 0.0 ± 0.0 mmol/g-DNA/2 days and the “Flux RXN 30 Metabolism of ketone bodies (to 3-Hydroxybutyrate)” value (3T3-L1 adipocytes [2]) was 10.8 ± 2.2 mmol/g-DNA/2 days.
